The source of these data is patent publication US20240016769A1, “Method for preparing compound or biological drug enhancing CNPase activity for treating heart diseases” (ZHUHAI YUANZHI HEALTH TECH CO. LTD., priority 2020, published 2024).

The assay has as its system CNPase. Description: CNPase enzyme activity in Ang-II induced cardiac hypertrophy cells. Particulars: n = 3. Type of assay: cell-based. An excerpt:
The enzyme activity of CNPase in hypertrophic myocardium was detected by the detection method of calf intestinal alkaline phosphatase activity.

Each structure is given as a SMILES string.

Turning to `C[C@@]12CC[C@@H]3[C@@](CC[C@H]4[C@@]3(C)CCC[C@@]4(C)C(=O)[O-])(CC1=O)C2.[Na+]` [STVNa, sodium isosteviol], the CNPase activity runs as follows: (STVNa + Ang II, cardiac hypertrophy induced by Ang-II, Control 1.000, Ang-II alone 0.2266) 0.9629 ± 0.411; (STVNa + Ang II, cardiac hypertrophy induced by Ang-II, Control 1.000, Ang-II alone 0.2266, listed as sodium isosteviol) “enhances CNPase activity”; (STVNa alone, no Ang-II, Control 1.000) 0.9326 ± 0.241.
